Experimental data taken from ChEMBL document CHEMBL3045701, “Comprehensive structureactivity relationship analysis of substituted 5-(biphenyl-4-ylmethyl) pyrazoles derivatives as AT1 selective angiotensin II receptor antagonists: 2D and kNNMFA QSAR approach” (Med Chem Res, 2013).

biological target: T1, Angiotensin II receptor (AT-1) type-1 (Rattus norvegicus, UniProt P29089+P25095); experiment: Antagonist activity at AT1 receptor in Rattus norvegicus (rat) liver
T1 sequence (P29089 whole entry): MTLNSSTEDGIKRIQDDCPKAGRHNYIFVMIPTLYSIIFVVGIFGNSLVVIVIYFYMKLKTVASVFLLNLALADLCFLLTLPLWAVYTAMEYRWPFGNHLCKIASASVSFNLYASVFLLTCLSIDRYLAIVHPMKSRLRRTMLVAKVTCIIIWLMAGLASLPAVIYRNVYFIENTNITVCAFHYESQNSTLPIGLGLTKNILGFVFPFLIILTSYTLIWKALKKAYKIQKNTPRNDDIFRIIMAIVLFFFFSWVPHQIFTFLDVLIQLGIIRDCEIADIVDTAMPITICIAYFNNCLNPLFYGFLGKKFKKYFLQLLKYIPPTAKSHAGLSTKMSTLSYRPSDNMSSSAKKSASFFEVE
T1 sequence (P25095 whole entry): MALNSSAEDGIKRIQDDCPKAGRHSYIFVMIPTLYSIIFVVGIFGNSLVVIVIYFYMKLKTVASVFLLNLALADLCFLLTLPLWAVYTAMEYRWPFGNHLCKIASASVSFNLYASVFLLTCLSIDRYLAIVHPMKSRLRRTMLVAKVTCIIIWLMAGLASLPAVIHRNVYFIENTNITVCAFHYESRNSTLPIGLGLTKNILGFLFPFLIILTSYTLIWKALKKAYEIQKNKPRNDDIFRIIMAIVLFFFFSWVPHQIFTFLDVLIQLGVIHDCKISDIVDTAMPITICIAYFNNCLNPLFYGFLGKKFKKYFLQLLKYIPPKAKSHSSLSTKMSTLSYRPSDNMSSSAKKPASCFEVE

pIC50	IC50	Structure (SMILES)
8.567		CCCCn1nc(C)c(C(=O)O)c1Cc1ccc(-c2ccccc2-c2nn[nH]n2)cc1
7.522	13 nM	CCCCOC(=O)NS(=O)(=O)c1ccccc1-c1ccc(Cc2c(C(=O)O)cnn2CCCC)cc1
7.102		Cc1nn(-c2ccccc2)c(Cc2ccc(-c3ccccc3-c3nn[nH]n3)cc2)c1C(=O)O
8.522	3 nM	CCCCc1nn(CCC)c(Cc2ccc(-c3ccccc3-c3nnn[nH]3)cc2)c1C(=O)O
7.92	12 nM	CCCCn1nc(C)c(C(=O)O)c1Cc1ccc(-c2ccccc2S(=O)(=O)Nc2ccccc2)cc1
6.886	130 nM	CCCn1nc(C(C)C)c(C(=O)O)c1Cc1ccc(-c2ccccc2C(=O)O)cc1
8.13	7.4 nM	CCCn1nc(C2CC2)c(C(N)=O)c1Cc1ccc(-c2ccccc2S(=O)(=O)Nc2ccccc2)cc1
7.744	18 nM	CCCn1nc(C2CC2)c(C(=O)O)c1Cc1ccc(-c2ccccc2S(=O)(=O)Nc2ccccc2)cc1
7.13	74 nM	CCCn1nc(C(C)C)c(C(=O)O)c1Cc1ccc(-c2ccccc2NS(=O)(=O)C(F)(F)F)cc1
